Reference: publication PMC9781916, “Antipsychotic- and Anxiolytic-like Properties of a Multimodal Compound JJGW08 in Rodents” (International Journal of Molecular Sciences, 2022)

Columns and labels:
[1] = target: T1, human serotonin 5-HT1A receptor (Homo sapiens, UniProt P08908); experiment: Functional assay (aequorin, calcium mobilization) in CHO-K1 cells, 5-HT1A receptor; format: cell-based
T1 construct: host or cells: CHO-K1
T1 sequence (P08908 1-422): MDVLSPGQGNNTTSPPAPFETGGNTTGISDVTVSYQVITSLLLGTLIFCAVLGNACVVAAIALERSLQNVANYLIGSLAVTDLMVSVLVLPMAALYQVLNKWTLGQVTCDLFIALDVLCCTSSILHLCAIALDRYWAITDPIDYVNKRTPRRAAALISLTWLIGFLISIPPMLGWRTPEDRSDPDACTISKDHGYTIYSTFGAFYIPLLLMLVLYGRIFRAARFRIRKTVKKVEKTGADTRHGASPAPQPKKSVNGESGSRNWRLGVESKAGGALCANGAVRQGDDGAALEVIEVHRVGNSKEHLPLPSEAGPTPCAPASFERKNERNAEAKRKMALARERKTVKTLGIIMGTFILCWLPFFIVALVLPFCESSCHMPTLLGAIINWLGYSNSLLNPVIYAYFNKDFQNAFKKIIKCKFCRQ
Description: (§1) Tested and reference compounds were dissolved in dimethyl sulfoxide (DMSO) at a concentration of 10 mM. Serial dilutions were prepared in a 96-well microplate in assay buffer, and 8 to 10 concentrations were tested. […] The assay was executed according to the previously described protocol [45]. After thawing, cells were transferred to assay buffer (DMEM/HAM’s F12 with 0.1% protease-free BSA) and centrifuged. The cell pellet was resuspended in assay buffer, and coelenterazine h was added at final concentrations of 5 µM. The cell suspension was incubated at 16 °C (or 21 °C), protected from light with constant agitation for 16 h (or 4 h), and then diluted with assay buffer to the concentration of 100,000 cells/mL (or 250,000 cells/mL). After 1 h of incubation, 50 µL of the cell’s suspension was dispensed using automatic injectors built into the radiometric and luminescence plate counter MicroBeta2 LumiJET (PerkinElmer, Waltham, NA, USA) into white opaque 96-well microplates preloaded with test compounds. Immediate light emission generated following calcium mobilization was recorded for 30 s. In antagonist mode, after 25–30 min of incubation, the reference agonist was added to the above assay mix, and light emission was re-recorded. […] IC50 and EC50 values were calculated.

mice = experiment: MK-801-induced hyperlocomotion test in mice; format: in vivo; conditions: doses 0.15–2.5 mg/kg ip, MK-801 0.2 mg/kg ip
Description: Locomotor activity was recorded in actometers separately for each mouse. After 30 min of adaptation, the number of crossings of photo beams was measured during 60 min. […] MK-801 (0.2 mg/kg, ip) was administered 15 min before the experiment, while amphetamine (2.5 mg/kg) was administered subcutaneously (sc) 30 min before the experiment. […] Values are expressed as means ± SD, n = 8–10 mice per group. Statistical analysis: one-way ANOVA (Newman–Keuls post hoc), * p < 0.05, ** p < 0.01, *** p < 0.001.
The test was performed according to the method described by Carlsson et al.. The mobility of the animals was measured in actometers, i.e., in plastic Opto M3 cages (22 × 12 × 13 cm) connected to a computer with MultiDevice Software v.1.30 (Columbus Instruments, Columbus, OH, USA). The experimental cages were equipped with infrared sources on one side and sensors receiving the emitted rays on the other side of the cage. The crossing of each beam of infrared rays was classified as motor activity. The animals were placed individually in experimental cages immediately after administration of the tested compound, 30 min before the start of the test, to adapt to the new conditions and exclude the occurrence of hyperactivity caused by the change of the environment. Spontaneous locomotor activity was measured every 5 min for 60 min. Mice received two injections: of the tested compound or reference substance (30 min before the test, ip) and of amphetamine (2.5 mg/kg, 30 min before the test, sc) or MK-801 (0.2 mg/kg, 15 min before the test, ip). Control groups received an injection of saline and amphetamine or MK-801, or two injections of saline, respectively. Olanzapine was used as a reference compound.

[2] = target: T2, human serotonin 5-HT2A receptor (Homo sapiens, UniProt P28223); format: cell-based
T2 construct: host or cells: CHO-K1
T2 sequence (P28223 whole entry): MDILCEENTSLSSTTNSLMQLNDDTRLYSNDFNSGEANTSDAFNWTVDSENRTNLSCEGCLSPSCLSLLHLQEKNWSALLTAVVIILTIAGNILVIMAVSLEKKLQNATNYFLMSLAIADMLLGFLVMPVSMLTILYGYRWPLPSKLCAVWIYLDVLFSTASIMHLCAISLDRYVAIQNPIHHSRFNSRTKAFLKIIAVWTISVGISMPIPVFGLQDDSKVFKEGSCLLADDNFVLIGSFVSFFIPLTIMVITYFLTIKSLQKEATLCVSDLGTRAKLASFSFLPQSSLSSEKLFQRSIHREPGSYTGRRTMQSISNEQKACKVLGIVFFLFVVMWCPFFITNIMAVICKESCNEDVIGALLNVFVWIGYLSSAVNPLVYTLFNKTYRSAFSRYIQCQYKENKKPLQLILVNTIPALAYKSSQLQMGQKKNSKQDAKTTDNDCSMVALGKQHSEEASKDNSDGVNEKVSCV
Description: as §1

rats = experiment: Prepulse inhibition test after MK-801 in rats; format: in vivo; conditions: 3.0–30 mg/kg ip, MK-801 0.6 mg/kg ip
Description: Figure 5 The influence of JJGW08 on startle response inhibition (Panel (A)) and changes in startle response (Panel (B)) in prepulse inhibition test after MK-801 administration in rats. The test was conducted in the soundproof apparatus, and the startle response amplitude was recorded. The experimental session (after a 5-min habituation period) had strictly defined parameters (prepuls-and-pulse trials: 84/120–prepuls 84 dB (20 ms), pulse 120 dB (40 ms); 90/120–prepuls 90 dB (20 ms), pulse 120 dB (40 ms), sham stimulus (70 dB, 40 ms)), and the startle intensity for each stimulus used in the session was measured. JJGW08 was administered ip 30 min before the test, while MK-801 (0.6 mg/kg) was administered ip 15 min before the start of the experiment. The control group received 0.9% NaCl solution (ip) and MK-801 (0.6 mg/kg, ip). Values are expressed as mean ± SD, n = 7–8 rats per group. […]
The study was conducted as described in detail by Acewicz and colleagues. […] Startle responses, reflecting the motion of animals in the cylinder following the acoustic stimulus, were detected by a piezoelectric transducer mounted below the frame. […] Sound levels in the chambers were measured and calibrated with a sound meter. […] Startle responses were measured for 100 ms after the onset of the last stimulus within each trial. […]

[3] = antagonist mode, 100 nM serotonin as reference agonist

## COc1ccccc1N1CCN(CCCCCOc2ccccc2C(N)=O)CC1.Cl [JJGW08, 2-{5-[4-(2-metoksyfenylo)piperazin-1-ylo]pentoxy}benzamide hydrochloride]
[1]; agonist mode
  Agonist Mode Emax%: 9%
[1]; [3]
  Antagonist Mode Emax%: 1%
  Antagonist Mode pIC50 ± Range: 8.3 ± 0.1
mice
  reduction of MK-801-induced hyperactivity: 24–71%
[2]
  Agonist Mode Emax%: 21%
  Agonist Mode pEC50 ± Range: 5.9 ± 0.1
  Antagonist Mode Emax%: 5%
  Antagonist Mode pIC50 ± Range: 5.7 ± 0.4
  antagonistic properties (in words): very weak antagonistic properties
[2]; read-out: Antagonist Mode Kb
  Kb: 290 nM
rats
  reversal of deficits in sensorimotor gating induced by MK-801 (in words): did not reverse the deficits
rats; prepulse 84 or 90 dB
  startle reaction inhibition (%PPI): −0.2 to 24.4%
